Measurements from the NIST ThermoML archive (doi:10.1021/acs.jced.5b00242).
Numbers after ± are expanded uncertainties.

Experiments:
[1] = refractive index (Na D-line) (dimensionless); xn = mol fraction of the nth substance listed; conditions: 101 kPa, Liquid, Standard Abbe refractometry
[2] = xn = mol fraction of the nth substance listed; conditions: 101 kPa, Liquid; for viscosity: Stabinger Viscometer; for mass density: Vibrating tube method

CCn1cc[n+](C)c1.NCCS(=O)(=O)[O-] [1-ethyl-3-methylimidazolium taurinate] + CCn1cc[n+](C)c1.N#C[C-](C#N)C#N
Conditions | mass density, [2] [kg/m3] | refractive index, [1] | viscosity, [2] [mPa·s]
293.15 K, x2 = 0 | 1255 ± 19 | 1.5135 ± 0.0019 | 760.89 ± 72
293.15 K, x2 = 0.2503 | 1207.7 ± 18 | 1.51268 ± 0.00098 | 250.33 ± 17
293.15 K, x2 = 0.5001 | 1164.8 ± 17 | 1.51322 ± 0.0016 | 84.5 ± 5.5
293.15 K, x2 = 0.7496 | 1124.1 ± 16 | 1.51365 ± 0.0014 | 35.42 ± 0.91
298.15 K, x2 = 0 | 1251.5 ± 19 | 1.51217 ± 0.0019 | 514.67 ± 42
298.15 K, x2 = 0.2503 | 1204.4 ± 18 | 1.51131 ± 0.00098 | 180.68 ± 11
298.15 K, x2 = 0.5001 | 1161.4 ± 17 | 1.51166 ± 0.0016 | 64.77 ± 4.1
298.15 K, x2 = 0.7496 | 1120.6 ± 16 | 1.5121 ± 0.0014 | 28.77 ± 0.73
303.15 K, x2 = 0 | 1248.1 ± 19 | 1.51084 ± 0.0019 | 359.36 ± 26
303.15 K, x2 = 0.2503 | 1201.1 ± 18 | 1.50995 ± 0.00098 | 133.6 ± 7.3
303.15 K, x2 = 0.5001 | 1158 ± 16 | 1.5102 ± 0.0016 | 50.77 ± 3.2
303.15 K, x2 = 0.7496 | 1117.2 ± 16 | 1.51054 ± 0.0014 | 23.71 ± 0.6
308.15 K, x2 = 0 | – | 1.5095 ± 0.0019 | 258.04 ± 16
308.15 K, x2 = 0.2503 | – | 1.50858 ± 0.00098 | 101.33 ± 5.1
308.15 K, x2 = 0.5001 | – | 1.50871 ± 0.0016 | –
308.15 K, x2 = 0.7496 | – | 1.50894 ± 0.0014 | –
313.15 K, x2 = 0 | – | 1.50816 ± 0.0019 | –
313.15 K, x2 = 0.2503 | – | 1.50716 ± 0.00098 | –
313.15 K, x2 = 0.5001 | – | 1.50723 ± 0.0016 | –
313.15 K, x2 = 0.7496 | – | 1.50736 ± 0.0014 | –
318.15 K, x2 = 0 | – | 1.5068 ± 0.0019 | –
318.15 K, x2 = 0.2503 | – | 1.50578 ± 0.00098 | –
318.15 K, x2 = 0.5001 | – | 1.50574 ± 0.0016 | –
318.15 K, x2 = 0.7496 | – | 1.50576 ± 0.0014 | –
323.15 K, x2 = 0 | – | 1.50543 ± 0.0019 | –
323.15 K, x2 = 0.2503 | – | 1.50436 ± 0.00098 | –
323.15 K, x2 = 0.5001 | – | 1.50428 ± 0.0016 | –
323.15 K, x2 = 0.7496 | – | 1.5042 ± 0.0014 | –
328.15 K, x2 = 0 | – | 1.50403 ± 0.0019 | –
328.15 K, x2 = 0.2503 | – | 1.50296 ± 0.00098 | –
328.15 K, x2 = 0.5001 | – | 1.50286 ± 0.0016 | –
328.15 K, x2 = 0.7496 | – | 1.50267 ± 0.0014 | –
333.15 K, x2 = 0 | – | 1.5027 ± 0.0019 | –
333.15 K, x2 = 0.2503 | – | 1.50159 ± 0.00098 | –
333.15 K, x2 = 0.5001 | – | 1.50142 ± 0.0016 | –
333.15 K, x2 = 0.7496 | – | 1.50113 ± 0.0014 | –
338.15 K, x2 = 0 | – | 1.50136 ± 0.0019 | –
338.15 K, x2 = 0.2503 | – | 1.50019 ± 0.00098 | –
338.15 K, x2 = 0.5001 | – | 1.49996 ± 0.0016 | –
338.15 K, x2 = 0.7496 | – | 1.49959 ± 0.0014 | –
343.15 K, x2 = 0 | – | 1.49997 ± 0.0019 | –
343.15 K, x2 = 0.2503 | – | 1.49878 ± 0.00098 | –
343.15 K, x2 = 0.5001 | – | 1.49854 ± 0.0016 | –
343.15 K, x2 = 0.7496 | – | 1.4981 ± 0.0014 | –
348.15 K, x2 = 0 | – | 1.4986 ± 0.0019 | –
348.15 K, x2 = 0.2503 | – | 1.49742 ± 0.00098 | –
348.15 K, x2 = 0.5001 | – | 1.49709 ± 0.0016 | –
348.15 K, x2 = 0.7496 | – | 1.49657 ± 0.0014 | –
353.15 K, x2 = 0 | – | 1.49726 ± 0.0019 | –
353.15 K, x2 = 0.2503 | – | 1.49603 ± 0.00098 | –
353.15 K, x2 = 0.5001 | – | 1.49563 ± 0.0016 | –
353.15 K, x2 = 0.7496 | – | 1.49505 ± 0.0014 | –
